Consider eight molecules from patent publication US12552783B2, “Modulators of proteolysis and associated methods of use” (Arvinas Operations, Inc., priority 2018, dated 2026).

The target in this assay is KRas (Homo sapiens, UniProt P01116, G12C). Description: KRas degradation in SW1573 cells by Western blot, normalized to GAPDH (data of Table 14). As to conditions: SW1573 cells. It counts as cell-based. Here is the method: Cell Lines, Antibodies, and Reagents. NCI-H2030 (CRL-5914) and SW1573 (CRL-2170) cells were purchased from ATCC. Both cell lines are homozygous for the G12C mutation in KRas. NCI-H2030 cells were cultured in RPMI-1640 medium containing 1% penicillin-streptomycin and 10% fetal bovine serum (FBS). SW1573 cells were cultured in DMEM containing 1% penicillin-streptomycin and 10% FBS. The KRas detection antibody (Cat. No. LS-C175665) was purchased from LifeSpan Biosciences and was used at a dilution of 1:2000. GAPDH was detected using an antibody purchased from Cell Signaling Technology (Cat. No. 5174) and was diluted 1:3000. Secondary anti-mouse and anti-rabbit detection antibodies were purchased from Cell Signaling Technology (Cat. Nos. 7076 and 7074, respectively).
Compound Treatment and Western Blotting of the Data of Table 14. Either NCI-H2030 or SW1573 cells were plated in 12-well plates and allowed to adhere overnight at 37° C. in an incubator containing 5% CO2. The following day, the medium was replaced with the appropriate medium lacking FBS to induce starvation. Cells were returned to the incubator for an additional 24 hours following media exchange. […] Cells were treated with VHL-based compounds for 24 hours and all other compounds for 72 hours. Following treatment, cells were lysed in RIPA buffer (Thermo Fisher Cat. No. 89900) containing phosphatase (Thermo Fisher Cat. No. 1861277) and protease (Thermo Fisher Cat. No. 78429) inhibitor cocktails. Lysates were cleared at 13,000 rpm for 15 minutes and supernatants were assayed for total protein concentration using the Pierce BCA assay system (Thermo Fisher Cat. No. 23225). For each sample, 10 μg total protein was resolved on a 12% Bis-Tris gel and then transferred to a nitrocellulose membrane. After blocking in 3% BSA in TBST (Tris-buffered Saline with 0.1% Tween-20) for 1 hour at room temperature, membranes were probed with the primary antibody (LS Bio Cat. No. LS-C175665) overnight at 4° C. After incubation with the secondary antibody, the following day membranes were visualized using the SuperSignal™ West Femto substrate (Thermo Fisher Cat. No. 34095). The KRas signal in each lane was normalized to GAPDH and percent degradation was either estimated as less than 25% by visual inspection (C in Table 13) or quantitated relative to the DMSO control lane using BIO-RAD Image Lab 5.2.1, and all data was plotted using GraphPad PRISM 6.07.
DC50 is the half-maximal degradation concentration—i.e., the concentration at which 50% degradation is observed. DMax is the maximum degradation efficacy is achieved—i.e., the maximal degradation observed) degradation data.
For orientation: In western blotting, separated proteins are transferred to a membrane and probed.

As to `C=CC(=O)N1CCN(c2nc(O[C@H](C)CN3CCC(OCCOCCOCCOc4cc([C@@H](C(=O)N5C[C@H](O)C[C@H]5C(=O)N[C@@H](C)c5ccc(-c6scnc6C)cc5)C(C)C)on4)CC3)nc3c(F)c(-c4cc(O)cc5ccccc45)c(Cl)cc23)CC1` [compound 528, (2S,4R)-1-((2S)-2-(3-(2-(2-(2-((1-((2R)-2-((4-(4-acryloylpiperazin-1-yl)-6-chloro-8-fluoro-7-(3-hydroxynaphthalen-1-yl)quinazolin-2-yl)oxy)propyl)piperidin-4-yl)oxy)ethoxy)ethoxy)ethoxy)isoxazol-5-yl)-3-methylbutanoyl)-4-hydroxy-N-((S)-1-(4-(4-methylthiazol-5-yl)phenyl)ethyl)pyrrolidine-2-carboxamide], the “Percent Degradation at Indicated Concentration (μM)” value (from here on “Percent Degradation”) is recorded as “C (Percent Degradation: C ≤ 35)” (0.03 μM), “C (Percent Degradation: C ≤ 35)” (0.1 μM) and “C (Percent Degradation: C ≤ 35)” (0.3 μM).

For `C=CC(=O)N1CCN(c2nc(O[C@H](C)CN3CCC(OCCOCCOc4cc([C@@H](C(=O)N5C[C@H](O)C[C@H]5C(=O)N[C@@H](C)c5ccc(-c6scnc6C)cc5)C(C)C)on4)CC3)nc3c(F)c(-c4cc(O)cc5ccccc45)c(Cl)cc23)CC1` [compound 526, (2S,4R)-1-((2S)-2-(3-(2-(2-((1-((2R)-2-((4-(4-acryloylpiperazin-1-yl)-6-chloro-8-fluoro-7-(3-hydroxynaphthalen-1-yl)quinazolin-2-yl)oxy)propyl)piperidin-4-yl)oxy)ethoxy)ethoxy)isoxazol-5-yl)-3-methylbutanoyl)-4-hydroxy-N-((S)-1-(4-(4-methylthiazol-5-yl)phenyl)ethyl)pyrrolidine-2-carboxamide], the “Percent Degradation” value is “C (Percent Degradation: C ≤ 35)” (0.03 μM), “C (Percent Degradation: C ≤ 35)” (0.1 μM) and “C (Percent Degradation: C ≤ 35)” (0.3 μM).

`C=CC(=O)N1CCN(c2nc(O[C@H](C)CN3CCC(OCCOCCOc4cc(-c5scnc5C)ccc4CNC(=O)[C@@H]4C[C@@H](O)CN4C(=O)[C@@H](c4cc(C)no4)C(C)C)CC3)nc3c2CCN(c2cc(O)cc4ccccc24)C3)CC1` [compound 438]: the “Percent Degradation” value runs as follows: (0.1 μM) “B (35 < B < 70)”; (0.3 μM) “C (Percent Degradation: C ≤ 35)”; (1 μM) “B (35 < B < 70)”.

`C=CC(=O)N1CCN(c2nc(O[C@H](C)CN3CCC(CN4CCN(CC(=O)N[C@H](C(=O)N5C[C@H](O)C[C@H]5C(=O)N[C@@H](C)c5ccc(-c6scnc6C)cc5)C(C)(C)C)CC4)CC3)nc3c(F)c(-c4cc(O)cc5ccccc45)c(Cl)cc23)CC1` [compound 403, (2S,4R)-1-((2S)-2-(2-(4-((1-((2R)-2-((4-(4-acryloylpiperazin-1-yl)-6-chloro-8-fluoro-7-(3-hydroxynaphthalen-1-yl)quinazolin-2-yl)oxy)propyl)piperidin-4-yl)methyl)piperazin-1-yl)acetamido)-3,3-dimethylbutanoyl)-4-hydroxy-N-((S)-1-(4-(4-methylthiazol-5-yl)phenyl)ethyl)pyrrolidine-2-carboxamide] gave a DC50 of less than 100 nM and a maximal degradation (Dmax) of 35 to 70%. For the same molecule, for the setting “0.01 μM”, the “Percent Degradation” value is reported as “C (Percent Degradation: C ≤ 35)”. Also, the “Percent Degradation” value (0.03 μM) is “B (35 < B < 70)”. Under “0.1 μM”, the “Percent Degradation” value was “B (35 < B < 70)”. The “Percent Degradation” value (0.3 μM) is given as “B (35 < B < 70)”. The “Percent Degradation” value (1 μM) was “C (Percent Degradation: C ≤ 35)”.

Take `C=CC(=O)N1CCN(c2nc(O[C@H](C)CN3CCC(OCCOCCOCCOCCOc4cc([C@H](C(=O)N5C[C@H](O)C[C@H]5C(=O)N[C@@H](C)c5ccc(-c6scnc6C)cc5)C(C)C)on4)CC3)nc3c(F)c(-c4cc(O)cc5ccccc45)c(Cl)cc23)CC1` [compound 530, (2S,4R)-1-((2R)-2-(3-(2-(2-(2-(2-((1-((2R)-2-((4-(4-acryloylpiperazin-1-yl)-6-chloro-8-fluoro-7-(3-hydroxynaphthalen-1-yl)quinazolin-2-yl)oxy)propyl)piperidin-4-yl)oxy)ethoxy)ethoxy)ethoxy)ethoxy)isoxazol-5-yl)-3-methylbutanoyl)-4-hydroxy-N-((S)-1-(4-(4-methylthiazol-5-yl)phenyl)ethyl)pyrrolidine-2-carboxamide]: the “Percent Degradation” value (0.03 μM) was “C (Percent Degradation: C ≤ 35)”, the “Percent Degradation” value (0.1 μM) is recorded as “C (Percent Degradation: C ≤ 35)” and the “Percent Degradation” value (0.3 μM) is reported as “C (Percent Degradation: C ≤ 35)”.

As for `Cc1ncsc1-c1ccc([C@H](C)NC(=O)[C@@H]2C[C@@H](O)CN2C(=O)[C@@H](NC(=O)COCCOCCOCCOCCOC2CCN(C[C@@H](C)Oc3nc(N4CCN(C(=O)C(O)O)CC4)c4cc(Cl)c(-c5cc(O)cc6ccccc56)c(F)c4n3)CC2)C(C)(C)C)cc1` [compound 247, (2S,4R)-1-((2S)-2-(tert-butyl)-17-((1-((2R)-2-((6-chloro-4-(4-(2,2-dihydroxyacetyl)piperazin-1-yl)-8-fluoro-7-(3-hydroxynaphthalen-1-yl)quinazolin-2-yl)oxy)propyl)piperidin-4-yl)oxy)-4-oxo-6,9,12,15-tetraoxa-3-azaheptadecanoyl)-4-hydroxy-N-((S)-1-(4-(4-methylthiazol-5-yl)phenyl)ethyl)pyrrolidine-2-carboxamide], the “Percent Degradation” value was “C (Percent Degradation: C ≤ 35)” (0.3 μM), “C (Percent Degradation: C ≤ 35)” (1 μM) and “C (Percent Degradation: C ≤ 35)” (3 μM).

As to `C=CC(=O)N1CCN(c2nc(O[C@H](C)CN3CCC(OCCOCCOCCOCCOCCOc4cc(C(C(=O)N5C[C@H](O)C[C@H]5C(=O)N[C@@H](C)c5ccc(-c6scnc6C)cc5)C(C)C)on4)CC3)nc3c(F)c(-c4cc(O)cc5ccccc45)c(Cl)cc23)CC1` (stereo in doubt) [compound 532, (2S,4R)-1-((2R)-2-(3-((14-((1-((2R)-2-((4-(4-acryloylpiperazin-1-yl)-6-chloro-8-fluoro-7-(3-hydroxynaphthalen-1-yl)quinazolin-2-yl)oxy)propyl)piperidin-4-yl)oxy)-3,6,9,12-tetraoxatetradecyl)oxy)isoxazol-5-yl)-3-methylbutanoyl)-4-hydroxy-N-((S)-1-(4-(4-methylthiazol-5-yl)phenyl)ethyl)pyrrolidine-2-carboxamide], the “Percent Degradation” value is “C (Percent Degradation: C ≤ 35)” (0.03 μM), “C (Percent Degradation: C ≤ 35)” (0.1 μM) and “C (Percent Degradation: C ≤ 35)” (0.3 μM).

Turning to `C=CC(=O)N1CCN(c2nc(O[C@H](C)CN3CCC(OCCOc4cc([C@@H](C(=O)N5C[C@H](O)C[C@H]5C(=O)N[C@@H](C)c5ccc(-c6scnc6C)cc5)C(C)C)on4)CC3)nc3c(F)c(-c4cc(O)cc5ccccc45)c(Cl)cc23)CC1` [compound 524, (2S,4R)-1-((2S)-2-(3-(2-((1-((2R)-2-((4-(4-acryloylpiperazin-1-yl)-6-chloro-8-fluoro-7-(3-hydroxynaphthalen-1-yl)quinazolin-2-yl)oxy)propyl)piperidin-4-yl)oxy)ethoxy)isoxazol-5-yl)-3-methylbutanoyl)-4-hydroxy-N-((S)-1-(4-(4-methylthiazol-5-yl)phenyl)ethyl)pyrrolidine-2-carboxamide], the “Percent Degradation” value runs as follows: (0.03 μM) “C (Percent Degradation: C ≤ 35)”; (0.1 μM) “C (Percent Degradation: C ≤ 35)”; (0.3 μM) “C (Percent Degradation: C ≤ 35)”.

Usually DC50 stands for the concentration giving 50% degradation. A high value points to degradation only at high concentration. The Dmax is the largest share of the target that was removed. Read a high Dmax as a fuller loss of target.
